Patent US20220348564A1, “PHENYL-[1,3]DIOXOLO[4,5-C]PYRIDINYL-PHENYL-, PHENYL-[1,3]DIOXOLO[4,5-C]PYRIDINYL-HETEROARYL-, OR PHENYL-(1,3)DIOXO[4,5-C]PYRIDINYL-PIPERIDINYL-METHYL-OXETANYLMETHYL-1H-BENZO[D]IMIDAZOLE-CARBOXYLIC ACID DERIVATIVES AND METHODS OF USING SAME” (Eccogene (Shanghai) Co., Ltd., priority 2021, published 2022)

biological target: T1, human GLP-1 (Homo sapiens, UniProt P43220); assay: h-GLP-1 activity assay (Cisbio cAMP Gs dynamic kit, HTRF); type: cell-based; settings: HEK293 cells with stable expression of human GLP-1, relative EC50, 10 nM human GLP-1 = 100% response
T1 construct: expressed in transfected cells
T1 sequence (P43220 24-463): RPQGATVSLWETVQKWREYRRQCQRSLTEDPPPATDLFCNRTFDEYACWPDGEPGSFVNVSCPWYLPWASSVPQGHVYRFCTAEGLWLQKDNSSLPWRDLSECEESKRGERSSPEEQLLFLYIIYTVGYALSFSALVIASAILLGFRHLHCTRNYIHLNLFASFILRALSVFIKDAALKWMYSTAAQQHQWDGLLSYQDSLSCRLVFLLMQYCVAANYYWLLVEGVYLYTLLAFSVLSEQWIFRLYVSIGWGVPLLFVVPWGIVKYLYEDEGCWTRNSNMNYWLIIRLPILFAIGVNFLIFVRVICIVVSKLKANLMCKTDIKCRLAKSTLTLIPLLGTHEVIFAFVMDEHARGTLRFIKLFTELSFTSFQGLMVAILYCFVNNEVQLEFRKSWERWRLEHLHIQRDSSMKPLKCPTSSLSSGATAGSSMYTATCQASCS
Protocol: Human GLP-1 agonizing activity was detected in HEK293 cells with stable expression of human GLP-1 by Cisbio cAMP Gs dynamic kit (Catalog #62AM4PEC) according to manufacturer's protocol. Briefly, cells were collected and resuspended in assay buffer containing 0.1% BSA and 0.5 mM of IBMX at concentration to 2.5×10^5 cells/mL. Two μL 5× compound solution and 8 μL cell suspension were added to each well of low-volume 384 white assay plate. After 30 min incubation at 37° C., 5 μL cAMP-d2 working solution and 5 μL anti-cAMP antibody-cryptate were added to each well, and incubate at room temperature for 1 hr. Series dilution of cAMP was used as standard. Human GLP-1 (7-37) was used as positive control and 10 nM human GLP-1 was set as 100% response. HTRF signals were read at 665 and 615 nm with EnVision plate reader and calculated cAMP concentration by intrapolation to the standard curve. The EC50 value of the tested compounds was calculated by fitting the dose response curve using a 4-parameter non-linear regression routine and relative EC50 was presented in Table S.

Structure (SMILES)	EC50
CC1(c2ccc(Cl)cc2F)Oc2cccc(C3CCC(Cc4nc5ccc(C(=O)O)cc5n4C[C@@H]4CCO4)OC3)c2O1 (mixture of isomers) [Compound 56, 2-((5-(2-(4-chloro-2-fluorophenyl)-2-methylbenzo[d][1,3]dioxol-4-yl)tetrahydro-2H-pyran-2-yl)methyl)-1-(((S)-oxetan-2-yl)methyl)-1H-benzo[d]imidazole-6-carboxylic acid]	< 20 nM
O=C(O)c1ccc2nc(Cc3cc(F)c(-c4cccc5c4OC(c4ccc(Cl)cc4F)CO5)cc3F)n(C[C@@H]3CCO3)c2c1 (mixture of isomers) [Compound 60, 2-(4-(3-(4-chloro-2-fluorophenyl)-2,3-dihydrobenzo[b][1,4]dioxin-5-yl)-2,5-difluorobenzyl)-1-(((S)-oxetan-2-yl)methyl)-1H-benzo[d]imidazole-6-carboxylic acid]	< 20 nM
CCC1(c2ccc(Cl)cc2F)Oc2cccc(-c3ccc(Cc4nc5ccc(C(=O)O)cc5n4C[C@@H]4CCO4)cc3)c2O1 (mixture of isomers) [Compound 7, 2-(4-(2-(4-chloro-2-fluorophenyl)-2-ethylbenzo[d][1,3]dioxol-4-yl)benzyl)-1-(((S)-oxetan-2-yl)methyl)-1H-benzo[d]imidazole-6-carboxylic acid]	> 100 nM
CC1(c2ccc(Cl)cc2F)Oc2cccc(-c3ccc(Cc4nc5ccc(C(=O)O)cc5n4C[C@@H]4CCO4)cc3)c2O1 (mixture of isomers) [Compound 15, 2-(4-(2-(4-chloro-2-fluorophenyl)-2-methylbenzo[d][1,3]dioxol-4-yl)benzyl)-1-(((S)-oxetan-2-yl)methyl)-1H-benzo[d]imidazole-6-carboxylic acid]	< 20 nM
CC1(c2ccc(Cl)cc2F)Oc2cccc(-c3ccc(Cc4nc5ccc(C(=O)O)cc5n4C[C@@H]4CCO4)nc3)c2O1 (mixture of isomers) [Compound 16, 2-((5-(2-(4-chloro-2-fluorophenyl)-2-methylbenzo[d][1,3]dioxol-4-yl)pyridin-2-yl)methyl)-1-(((S)-oxetan-2-yl)methyl)-1H-benzo[d]imidazole-6-carboxylic acid]	< 20 nM
CC1(c2ccc(Cl)cc2F)Oc2cccc(-c3cnc(Cc4nc5ccc(C(=O)O)cc5n4C[C@@H]4CCO4)nc3)c2O1 (mixture of isomers) [Compound 17, 2-((5-(2-(4-chloro-2-fluorophenyl)-2-methylbenzo[d][1,3]dioxol-4-yl)pyrimidin-2-yl)methyl)-1-(((S)-oxetan-2-yl)methyl)-1H-benzo[d]imidazole-6-carboxylic acid]	< 20 nM
CC1(c2ccc(Cl)cc2F)Oc2cccc(-c3ncc(Cc4nc5ccc(C(=O)O)cc5n4C[C@@H]4CCO4)cn3)c2O1 (mixture of isomers) [Compound 21, 2-((2-(2-(4-chloro-2-fluorophenyl)-2-methylbenzo[d][1,3]dioxol-4-yl)pyrimidin-5-yl)methyl)-1-(((S)-oxetan-2-yl)methyl)-1H-benzo[d]imidazole-6-carboxylic acid]	20 to 100 nM
CC1(c2ccc(Cl)cc2F)Oc2cccc(-c3ccn(Cc4nc5ccc(C(=O)O)cc5n4C[C@@H]4CCO4)c(=O)c3)c2O1 (mixture of isomers) [Compound 22, 2-((4-(2-(4-chloro-2-fluorophenyl)-2-methylbenzo[d][1,3]dioxol-4-yl)-2-oxopyridin-1(2H)-yl)methyl)-1-(((S)-oxetan-2-yl)methyl)-1H-benzo[d]imidazole-6-carboxylic acid]	20 to 100 nM
CC1(c2ccc(Cl)cc2F)Oc2cccc(C3CC4(C3)CN(Cc3nc5ccc(C(=O)O)cc5n3C[C@@H]3CCO3)C4)c2O1 (mixture of isomers) [Compound 23, 2-((6-(2-(4-chloro-2-fluorophenyl)-2-methylbenzo[d][1,3]dioxol-4-yl)-2-azaspiro[3.3]heptan-2-yl)methyl)-1-(((S)-oxetan-2-yl)methyl)-1H-benzo[d]imidazole-6-carboxylic acid]	> 100 nM
CC1(c2ccc(Cl)cc2F)Oc2cccc(-c3nc(Cc4nc5ccc(C(=O)O)cc5n4C[C@@H]4CCO4)cs3)c2O1 (mixture of isomers) [Compound 25, 2-((2-(2-(4-chloro-2-fluorophenyl)-2-methylbenzo[d][1,3]dioxol-4-yl)thiazol-4-yl)methyl)-1-(((S)-oxetan-2-yl)methyl)-1H-benzo[d]imidazole-6-carboxylic acid]	> 100 nM
CC1(c2ccc(C(F)(F)F)cc2F)Oc2cccc(-c3ccc(Cc4nc5ccc(C(=O)O)cc5n4C[C@@H]4CCO4)cc3)c2O1 (mixture of isomers) [Compound 26, 2-(4-(2-(2-fluoro-4-(trifluoromethyl)phenyl)-2-methylbenzo[d][1,3]dioxol-4-yl)benzyl)-1-(((S)-oxetan-2-yl)methyl)-1H-benzo[d]imidazole-6-carboxylic acid]	< 20 nM
O=C(O)c1ccc2nc(CN3CCC(c4cccc5c4CC(c4ccc(Cl)cn4)O5)CC3)n(C[C@@H]3CCO3)c2c1 (mixture of isomers) [Compound 27, 2-((4-(2-(5-chloropyridin-2-yl)-2,3-dihydrobenzofuran-4-yl)piperidin-1-yl)methyl)-1-(((S)-oxetan-2-yl)methyl)-1H-benzo[d]imidazole-6-carboxylic acid]	> 100 nM
O=C(O)c1ccc2nc(Cc3ccc(-c4cccc5c4NC(=O)C(c4ccc(Cl)cc4F)O5)cc3)n(C[C@@H]3CCO3)c2c1 (mixture of isomers) [Compound 42, 2-(4-(2-(4-chloro-2-fluorophenyl)-3-oxo-3,4-dihydro-2H-benzo[b][1,4]oxazin-5-yl)benzyl)-1-(((S)-oxetan-2-yl)methyl)-1H-benzo[d]imidazole-6-carboxylic acid]	> 100 nM
Cc1cc(Cc2nc3ccc(C(=O)O)cc3n2C[C@@H]2CCO2)ccc1-c1cccc2c1OC(C)(c1ccc(Cl)cc1F)O2 (mixture of isomers) [Compound 43, 2-(4-(2-(4-chloro-2-fluorophenyl)-2-methylbenzo[d][1,3]dioxol-4-yl)-3-methylbenzyl)-1-(((S)-oxetan-2-yl)methyl)-1H-benzo[d]imidazole-6-carboxylic acid]	< 20 nM
CC1(c2ccc(Cl)cc2F)Oc2cccc(C3CCC(Cc4nc5ccc(C(=O)O)cc5n4C[C@@H]4CCO4)CO3)c2O1 (mixture of isomers) [Compound 58, 2-((6-(2-(4-chloro-2-fluorophenyl)-2-methylbenzo[d][1,3]dioxol-4-yl)tetrahydro-2H-pyran-3-yl)methyl)-1-(((S)-oxetan-2-yl)methyl)-1H-benzo[d]imidazole-6-carboxylic acid]	> 100 nM
CC1(c2ccc(Cl)cc2F)Oc2cccc(C3=CCC(Cc4nc5ccc(C(=O)O)cc5n4C[C@@H]4CCO4)OC3)c2O1 (mixture of isomers) [Compound 61, 2-((5-(2-(4-chloro-2-fluorophenyl)-2-methylbenzo[d][1,3]dioxol-4-yl)-3,6-dihydro-2H-pyran-2-yl)methyl)-1-(((S)-oxetan-2-yl)methyl)-1H-benzo[d]imidazole-6-carboxylic acid]	< 20 nM
CC1(c2ccc(Cl)cc2F)Oc2c(cccc2C2CCN(Cc3nc4ccc(C(=O)O)cc4n3C[C@@H]3CCO3)CC2)NC1=O (mixture of isomers) [Compound 68, 2-((4-(2-(4-chloro-2-fluorophenyl)-2-methyl-3-oxo-3,4-dihydro-2H-benzo[b][1,4]oxazin-8-yl)piperidin-1-yl)methyl)-1-(((S)-oxetan-2-yl)methyl)-1H-benzo[d]imidazole-6-carboxylic acid]	20 to 100 nM
O=C(O)c1ccc2nc(CC3CC=C(c4cccc5c4OC(c4ccc(Cl)cc4F)CO5)CO3)n(C[C@@H]3CCO3)c2c1 (mixture of isomers) [Compound 70, 2-((5-(3-(4-chloro-2-fluorophenyl)-2,3-dihydrobenzo[b][1,4]dioxin-5-yl)-3,6-dihydro-2H-pyran-2-yl)methyl)-1-(((S)-oxetan-2-yl)methyl)-1H-benzo[d]imidazole-6-carboxylic acid]	20 to 100 nM
O=C(O)c1ccc2nc(CC3CC(c4cccc(OCc5ccc(Cl)cc5F)n4)CO3)n(C[C@@H]3CCO3)c2c1 (mixture of isomers) [Compound 71, 2-((4-(6-((4-chloro-2-fluorobenzyl)oxy)pyridin-2-yl)tetrahydrofuran-2-yl)methyl)-1-(((S)-oxetan-2-yl)methyl)-1H-benzo[d]imidazole-6-carboxylic acid]	> 100 nM
O=C(O)c1ccc2nc(CN3CC=C(c4cccc5c4OC(c4ccc(Cl)cc4F)C(=O)N5)CC3)n(C[C@@H]3CCO3)c2c1 (mixture of isomers) [Compound 81, 2-((4-(2-(4-chloro-2-fluorophenyl)-3-oxo-3,4-dihydro-2H-benzo[b][1,4]oxazin-8-yl)-3,6-dihydropyridin-1(2H)-yl)methyl)-1-(((S)-oxetan-2-yl)methyl)-1H-benzo[d]imidazole-6-carboxylic acid]	> 100 nM
CC1(c2ccc(Cl)cn2)COc2cccc(C3CCN(Cc4nc5ccc(C(=O)O)cc5n4C[C@@H]4CCO4)CC3)c2OC1 (mixture of isomers) [Compound 86, 2-((4-(3-(5-chloropyridin-2-yl)-3-methyl-3,4-dihydro-2H-benzo[b][1,4]dioxepin-6-yl)piperidin-l-yl)methyl)-1-(((S)-oxetan-2-yl)methyl)-1H-benzo[d]imidazole-6-carboxylic acid]	> 100 nM
O=C(O)c1ccc2nc(CN3CCC(c4cccc5c4OC(c4ccc(Cl)cc4F)C(=O)N5)CC3)n(C[C@@H]3CCO3)c2c1 (mixture of isomers) [Compound 104, 2-((4-(2-(4-chloro-2-fluorophenyl)-3-oxo-3,4-dihydro-2H-benzo[b][1,4]oxazin-8-yl)piperidin-1-yl)methyl)-1-(((S)-oxetan-2-yl)methyl)-1H-benzo[d]imidazole-6-carboxylic acid]	20 to 100 nM
